We go through 35 compounds from patent EP4644383A1 (Jiangsu Yahong Meditech Co., Ltd., priority 2022, dated 2024).

Usually IC50 stands for the concentration that inhibits the measured activity by half.

A value given as a limit tells only on which side of the number the result lay.

One assay deals with T1, FGFR3 (Homo sapiens, UniProt P22607).
T1 construct: FGFR3's cytoplasmic domain [436-806 (terminal) amino acids]; purchased Carna 08-135
T1 sequence (P22607 436-806): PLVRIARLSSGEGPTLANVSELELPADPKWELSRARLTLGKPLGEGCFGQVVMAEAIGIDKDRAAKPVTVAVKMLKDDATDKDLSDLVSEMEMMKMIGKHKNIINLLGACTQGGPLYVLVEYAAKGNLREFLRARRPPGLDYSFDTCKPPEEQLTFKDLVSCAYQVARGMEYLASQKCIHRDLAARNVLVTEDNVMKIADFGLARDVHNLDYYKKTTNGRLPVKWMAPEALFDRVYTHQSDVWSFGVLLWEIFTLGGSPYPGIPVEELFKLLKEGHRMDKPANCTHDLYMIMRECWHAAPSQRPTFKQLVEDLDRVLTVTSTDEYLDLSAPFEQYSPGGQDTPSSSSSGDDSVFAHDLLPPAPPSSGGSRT
In words: FGFR3 kinase activity inhibition assay (LanthaScreen TR-FRET). The assay is classed as biochemical.
Settings: not given
The protocol:
PV3552) and 10 mM EDTA were added to quench the kinase reaction, and incubated at 22°C for 60 minutes. • ⑤ The reaction was measured using a PerkinElmer EnVision multimode plate reader through TR-FRET dual wavelength detection. • 1. The RFU values were copied from the Envision program. • 2. The ratio of RFU 520nm/RFU 495nm was calculated. • 3. The value of the ratio was converted to a percentage inhibition value. % Inhibition = (max-data)/(max-min) × 100 [formula] "Min" represents the ratio of the control without enzyme, "max" represents the ratio of the DMSO control, and "data" represents the ratio of the compounds in wells with different concentrations. […] "Top" refers to the maximum response, "Bottom" refers to the minimum response, and "HillSlope" refers to the slope of the curve. According to the same method as that in the FGFR1 kinase activity inhibition assay, the inhibitory activities against FGFR2, FGFR3 and FGFR4 were tested using FGFR2's cytoplasmic domain [399-821 (terminal) amino acids] (Carna: 08-134), FGFR3's cytoplasmic domain [436-806 (terminal) amino acids] (Carna: 08-135) and FGFR4's cytoplasmic domain [460-802 (terminal) amino acids] (Carna: 08-136), respectively. […]
As for `C[C@@H](Oc1ccc2[nH]nc(-c3ccc(N4CCOCC4)nc3)c2n1)c1c(Cl)cncc1Cl` [Example 33, (R)-4-(5-(5-(1-(3,5-dichloropyridin-4-yl)ethoxy)-1H-pyrazolo[4,3-b]pyridin-3-yl)pyridin-2-yl)morpholine], the IC50 fell in the range of 10 to 100 nM. On the same count and under the same terms, the value for `C[C@@H](Oc1ccc2[nH]nc(-c3cnn(CC(C)(C)O)c3)c2n1)c1c(Cl)cncc1Cl` [Example 38, (R)-1-(4-(5-(1-(3,5-dichloropyridin-4-yl)ethoxy)-1H-pyrazolo[4,3-b]pyridin-3-yl)-1H-pyrazol-1-yl)-2-methylpropan-2-ol] was 10 to 100 nM.

The assay is the same for the next values; noted with them: FGFR3 kinase, TR-FRET; read-out: IC50 (nM) FGFR3.
As for `CC(C)c1cc(O[C@H](C)c2c(Cl)cncc2Cl)cc2c(-c3cnn(C)c3)n[nH]c12` [Example 6, (R)-5-(1-(3,5-dichloropyridin-4-yl)ethoxy)-7-isopropyl-3-(1-methyl-1H-pyrazol-4-yl)-1H-indazole], the IC50 is > 100 nM. The same measure, in the same setting: the value for `Cc1c[nH]c(-c2n[nH]c3c(C)cc(O[C@H](C)c4c(Cl)cncc4Cl)cc23)n1` [Example 9, (R)-5-(1-(3,5-dichloropyridin-4-yl)ethoxy)-7-methyl-3-(4-methyl-1H-imidazol-2-yl)-1H-indazole] was > 100 nM; that for `C[C@@H](Oc1ccc2[nH]nc(-c3cnn4ccccc34)c2n1)c1c(Cl)cncc1Cl` [Example 43, (R)-5-(1-(3,5-dichloropyridin-4-yl)ethoxy)-3-(pyrazolo[1,5-a]pyridin-3-yl)-1H-pyrazolo[4,3-b]pyridine] was > 100 nM; that for `C[C@@H](Oc1ccc2[nH]nc(-c3cnn4c3CCCC4)c2n1)c1c(Cl)cncc1Cl` [Example 44, (R)-5-(1-(3,5-dichloropyridin-4-yl)ethoxy)-3-(4,5,6,7-tetrahydropyrazolo[1,5-a]pyridin-3-yl)-1H-pyrazolo[4,3-b]pyridine] was > 100 nM. On the same count and under the same terms, with `CC(C)n1cc(-c2n[nH]c3ccc(O[C@H](C)c4c(Cl)cncc4Cl)nc23)cn1` [Example 47, (R)-5-(1-(3,5-dichloropyridin-4-yl)ethoxy)-3-(1-isopropyl-1H-pyrazol-4-yl)-1H-pyrazolo[4,3-b]pyridine] the figure was 10 to 100 nM. Still for that read-out and setting: the value for `CC(C)Cn1cc(-c2n[nH]c3ccc(O[C@H](C)c4c(Cl)cncc4Cl)nc23)cn1` [Example 51, (R)-5-(1-(3,5-dichloropyridin-4-yl)ethoxy)-3-(1-isobutyl-1H-pyrazol-4-yl)-1H-pyrazolo[4,3-b]pyridine] was > 100 nM; that for `Cn1cc(-c2n[nH]c3ccc(C(=O)NCC(C)(C)O)cc23)cn1` [Example 67, N-(2-hydroxy-2-methylpropyl)-3-(1-methyl-1H-pyrazol-4-yl)-1H-indazole-5-carboxamide] was > 100 nM.

Take `Cn1cc(-c2n[nH]c3ccc(C(=O)NCC4CNC4)cc23)cn1` [Example 68, N-(azetidin-3-ylmethyl)-3-(1-methyl-1H-pyrazol-4-yl)-1H-indazole-5-carboxamide]: the IC50 was > 100 nM. On the same count and under the same terms, the value for `Cn1cc(-c2n[nH]c3ccc(C(=O)NCC4CCCNC4)cc23)cn1` (centres unmarked) [Example 69, 3-(1-methyl-1H-pyrazol-4-yl)-N-(piperidin-3-ylmethyl)-1H-indazole-5-carboxamide] was > 100 nM.

Regarding `CNCCNC(=O)c1cc(F)c2[nH]nc(-c3cnn(CCN4CCOCC4)c3)c2c1` [Example 70, 7-fluoro-N-(2-(methylamino)ethyl)-3-(1-(2-morpholinoethyl)-1H-pyrazol-4-yl)-1H-indazole-5-carboxamide], the IC50 was > 100 nM. The same measure, in the same setting: the value for `CNCCNC(=O)c1cc2c(-c3cnn(C)c3)n[nH]c2cc1-c1cc(OC)cc(OC)c1` [Example 71, 6-(3,5-dimethoxyphenyl)-3-(1-methyl-1H-pyrazol-4-yl)-N-(2-(methylamino)ethyl) -1H-indazole-5-carboxamide] was > 100 nM; that for `CNCCNC(=O)c1cc2c(-c3cnn(C)c3)n[nH]c2cc1OC` [Example 72, 6-methoxy-3-(1-methyl-1H-pyrazol-4-yl)-N-(2-(methylamino)ethyl)-1H-indazole-5-carboxamide] was > 100 nM; that for `CNCCNC(=O)c1cc2c(-c3cnn(C)c3)n[nH]c2cc1F` [Example 73] was > 100 nM. On the same count and under the same terms, the value for `CNCCn1cc(-c2ccc3[nH]nc(-c4nc(C)c[nH]4)c3c2)nn1` [Example 75, N-methyl-2-(4-(3-(4-methyl-1H-imidazol-2-yl)-1H-indazol-5-yl)-1H-1,2,3-triazol-1-yl)ethan-1-amine] was > 100 nM. Turning to `Cc1cccc(C)c1NC(=O)c1ccc2[nH]nc(-c3cnn(C)c3)c2c1` [Example 77, N-(2,6-dimethylphenyl)-3-(1-methyl-1H-pyrazol-4-yl)-1H-indazole-5-carboxamide], the IC50 is > 100 nM. The same measure, in the same setting: with `Cn1cc(-c2n[nH]c3ccc(C(=O)NCc4c(Cl)cncc4Cl)cc23)cn1` [Example 78, N-((3,5-dichloropyridin-4-yl)methyl)-3-(1-methyl-1H-pyrazol-4-yl)-1H-indazole-5-carboxamide] the figure was > 100 nM; with `Cc1c[nH]c(-c2n[nH]c3ccc(C(=O)NCC4CCNC4)cc23)n1` (centres unmarked) [Example 79, 3-(4-methyl-1H-imidazol-2-yl)-N-(pyrrolidin-3-ylmethyl)-1H-indazole-5-carboxamide], > 100 nM.

With `Cc1c[nH]c(-c2n[nH]c3ccc(C(=O)NCc4ncc[nH]4)cc23)n1` [Example 81], the IC50 was > 100 nM. Same read-out and setting: the value for `CNCCNC(=O)c1ccc2[nH]nc(-c3nc(-c4ccccc4)c[nH]3)c2c1` [Example 82, N-(2-(methylamino)ethyl)-3-(4-phenyl-1H-imidazol-2-yl)-1H-indazole-5-carboxamide] was > 100 nM; that for `CNCCNC(=O)c1ccc2[nH]nc(-c3nc4c([nH]3)CN(C)C4)c2c1` [Example 83, 3-(5-methyl-1,4,5,6-tetrahydropyrrolo[3,4-d]imidazol-2-yl)-N-(2-(methylamino)ethyl)-1H-indazole-5-carboxamide] was > 100 nM. The same measure, in the same setting: with `CNCCNC(=O)c1ccc2[nH]nc(-c3nc4cc(N5CCN(C)CC5)ccc4[nH]3)c2c1` [Example 84, N-(2-(methylamino)ethyl)-3-(5-(4-methylpiperazin-1-yl)-1H-benzo[d]imidazol-2-yl)-1H-indazole-5-carboxamide] the figure was > 100 nM; with `CC(Oc1ccc2[nH]nc(-c3cnn(C)c3)c2c1)C1CCOCC1` (centres unmarked) [Example 86, 3-(1-methyl-1H-pyrazol-4-yl)-5-(1-(tetrahydro-2H-pyran-4-yl)ethoxy)-1H-indazole], > 100 nM. On the same count and under the same terms, the value for `CC(Oc1ccc2[nH]nc(-c3cnn(C)c3)c2c1)c1ccn2ccnc2c1` (centres unmarked) [Example 89, 5-(1-(imidazo[1,2-a]pyridine-7-yl)ethoxy)-3-(1-methyl-1H-pyrazol-4-yl)-1H-indazole] was > 100 nM; that for `Cn1cc(-c2n[nH]c3ccc(OC4CCCc5cnccc54)cc23)cn1` (centres unmarked) [Example 90, 5-((3-(1-methyl-1H-pyrazol-4-yl)-1H-indazol-5-yl)oxy)-5,6,7,8-tetrahydroisoquin oline] was > 100 nM. Turning to `CC(Oc1ccc2[nH]nc(-c3cnn(C)c3)c2c1)c1nccs1` (centres unmarked) [Example 91, 2-(1-((3-(1-methyl-1H-pyrazol-4-yl)-1H-indazol-5-yl)oxy)ethyl)thiazole], the 50% inhibitory concentration (IC50) was in the range of 10 to 100 nM.

Turning to `CC(Oc1ccc2[nH]nc(-c3cnn(C)c3)c2c1)c1ccnc2ncccc12` (centres unmarked) [Example 93, 4-(1-((3-(1-methyl-1H-pyrazol-4-yl)-1H-indazol-5-yl)oxy)ethyl)-1,8-naphthyridine], the IC50 was 10 to 100 nM. Same read-out and setting: the value for `CC(Oc1ccc2[nH]nc(-c3cnn(C)c3)c2c1)c1cccc2c1OCCO2` (centres unmarked) [Example 97, 5-(1-(2,3-dihydrobenzo[b][1,4]dioxan-5-yl)ethoxy)-3-(1-methyl-1H-pyrazol-4-yl)-1H-indazole] was > 100 nM; that for `CC(Oc1ccc2[nH]nc(-c3cnn(C)c3)c2c1)c1c(F)ccc2ncccc12` (centres unmarked) [Example 102, 6-fluoro-5-(1-((3-(1-methyl-1H-pyrazol-4-yl)-1H-indazol-5-yl)oxy)ethyl)qu inoline] was 1 to 10 nM. Take `CC(Oc1ccc2[nH]nc(-c3cnn(C)c3)c2c1)c1cccc2ncn(C)c12` (centres unmarked) [Example 103, 5-(1-(1-methyl-1H-benzo[d]imidazol-7-yl)ethoxy)-3-(1-methyl-1-H-pyrazol-4-yl)-1H-indazole]: the concentration for half-maximal inhibition (IC50) fell in the range of 1 to 10 nM. Still for that read-out and setting: the value for `CC(Oc1ccc2[nH]nc(-c3cnn(C)c3)c2c1)c1cccc2cnccc12` (centres unmarked) [Example 104, 5-(1-((3-(1-methyl-1H-pyrazol-4-yl)-1H-indazol-5-yl)oxy)ethyl)isoq uinoline] was 1 to 10 nM; that for `CC(Oc1ccc2[nH]nc(-c3cnn(C)c3)c2c1)c1cccc2cccnc12` (centres unmarked) [Example 105, 8-(1-((3-(1-methyl-1H-pyrazol-4-yl)-1H-indazol-5-yl)oxy)ethyl)quin oline] was 10 to 100 nM; that for `CC(Oc1ccc2[nH]nc(-c3cnn(C)c3)c2c1)c1cccc2occc12` (centres unmarked) [Example 106, 5-(1-(benzofuran-4-yl)ethoxy)-3-(1-methyl-1H-pyrazol-4-yl)-1H-indazole] was 10 to 100 nM.

The assay is the same for the next values; noted with them: read-out: IC50 (nM) FGFR3; FGFR3 kinase, TR-FRET.
On to `CNCCN(C)C(=O)c1ccc2[nH]nc(-c3cnn(C)c3)c2c1` [Example 66, N-methyl-3-(1-methyl-1H-pyrazol-4-yl)-N-(2-(methylamino)ethyl) -1H-indazole-5-carboxamide], for which the IC50 is > 100 nM.
